Measurements taken from the OPERA property sets (Mansouri et al. 2018).
In brackets after ≈: the same amount, converted by molar mass.

logP	solubility [µM]	Compound
1.48		CC(C)(C)C(=O)O
3.31		Nc1ccc2c(c1)C(=O)c1ccccc1C2=O
4.72		ClC1C(Br)C(Br)C(Br)C(Br)C1Br (configuration not stated)
3.47		Oc1ccc(Cc2ccccc2)cc1
3.82		CC=C1CC2C=CC1C2 (configuration not stated)
0.78		C=CC(OC(C)=O)OC(C)=O
3.79		COc1ccc(C(=O)c2ccccc2)c(O)c1
	294 (≈ 100 µg/mL)	CCCCC(CC)COC(=O)/C=C/C(=O)OCC(CC)CCCC (configuration not stated)
3.3		N#CSCSc1nc2ccccc2s1
1.94		COc1ccc(N)c([N+](=O)[O-])c1
3.45		COc1cccc2ccccc12
4.55		C=C(C)CC(C)(C)C
2.47		Cc1ccc([N+](=O)[O-])cc1O
1.24		CC(C)C(O)C(C)(C)CO (configuration not stated)
4.19		C=Cc1ccc(CC)cc1
2.72		ClCC(Cl)(Cl)CCl
0.61		COc1ccccc1OCC(O)COC(N)=O (configuration not stated)
1.17		CC(C)CN1CCOCC1
0.55		Cc1cc(=O)nc(C(C)C)[nH]1
3.74		Nc1cccc2c1C(=O)c1ccccc1C2=O
	29000 (≈ 6100 µg/mL)	CC(C)(O)CCCC1=CCC(C=O)CC1 (configuration not stated)
3.99		BrCC(CBr)(CBr)CBr
2.74		OCc1ccc(Cl)c(Cl)c1
1.54		C=Cc1ccccn1
3.23		ClC(Cl)C(Cl)C(Cl)Cl
	6.14 (≈ 1.23 µg/mL)	CC(C)COc1ccc2ccccc2c1
	1240 (≈ 280 µg/mL)	CCCCCC1C(=O)CCC1CC(=O)OC (configuration not stated)
4.38		ClCCOC(c1ccccc1)c1ccccc1

logP	solubility [µM]	Compound
3.61		OC(c1ccccc1)c1ccc(Cl)cc1 (configuration not stated)
4.11		C=Cc1cccc(CC)c1
3.17		O=C1CCCCC1C1=CCCCC1 (configuration not stated)
5.65		Cc1ccc(C)c(Cc2ccccc2)c1
5.96		CCCCC(CC)CN1C(=O)C2C(C1=O)C1(C(C)C)C=CC2(C)CC1 (configuration not stated)
4.25		CC(C)CCOCCC(C)C
1.75		CC(=O)CC(=O)Nc1ccc(-c2ccc(NC(=O)CC(C)=O)c(C)c2)cc1C
5.19		CC(C)(C)c1ccc(O)c(C(C)(C)C)c1
1.17		OCC(O)c1ccccc1Cl (configuration not stated)
6.25		Cc1cc(Cc2cc(C)cc(C(C)(C)C)c2O)c(O)c(C(C)(C)C)c1
3.69		S=C(NC1CCCCC1)NC1CCCCC1
3.2		O=[N+]([O-])c1ccc(Cl)cc1C(F)(F)F
5.17		Cc1ccc(C(C)(C)C)cc1
5.25		ClC(c1ccccc1)(c1ccccc1)c1ccccc1
2.19		CNc1cccc(C)c1
2.92		O=C1CCCCCCCCCCCN1
	12.4 (≈ 5 µg/mL)	CCCCOC(=O)CC(CC(=O)OCCCC)(OC(C)=O)C(=O)OCCCC
3.5		CC(C)=CC=C(C)C
1.76		C=CCOP(=O)(OCC=C)OCC=C
2.7		COC(=O)c1ccccc1C(=O)c1ccccc1
4.39		C=C(C)C(=O)OCC(CC)(COC(=O)C(=C)C)COC(=O)C(=C)C
2.8		S=C(SSSSC(=S)N1CCCCC1)N1CCCCC1
0.63		CCC(C)=NO
1.78		COc1c(N)cccc1[N+](=O)[O-]
3.45		CCNc1cccc2ccccc12
1.95		CCN(CC)c1ccc2c(-c3ccccc3C(=O)O)c3ccc(N(CC)CC)cc3[o+]c2c1.[Cl-]
	1490 (≈ 290 µg/mL)	COC(=O)c1cccc(C(=O)OC)c1

Compound	logP	solubility [µM]
CC1CC(C)(C)CC(OOC(C)(C)C)(OOC(C)(C)C)C1 (configuration not stated)	6.53	1.98 (≈ 0.6 µg/mL)
N#CCCNCCC#N	-1.34	
O=P(OCCCl)(OCCCl)OCCCl	1.44	
C=CC1CC=CCC1 (configuration not stated)	3.93	
C=CC(=C)CCC=C(C)C	4.17	
Oc1cc(Cl)ccc1Oc1ccc(Cl)cc1Cl	4.76	
CC(C)[N+](=O)[O-]	0.93	
Oc1c(Cl)cc(Cl)c2ccccc12	4.23	
C=CC(=C)C	2.42	
O=P(OC(CCl)CCl)(OC(CCl)CCl)OC(CCl)CCl	3.65	
Cc1ccc(O)cc1[N+](=O)[O-]	2.18	
ClCC(Br)CBr (configuration not stated)	2.96	
ClCC(Cl)CCl	2.27	
CCc1ccccc1[N+](=O)[O-]	2.58	
CC(C)(C)c1cc(C(C)(C)C)c(O)c(C(C)(C)C)c1	6.06	
CCCCOCCOP(=O)(OCCOCCCC)OCCOCCCC	3.75	
CCOC(=O)C(O)(c1ccc(Cl)cc1)c1ccc(Cl)cc1	4.74	
CC(CCl)OP(=O)(OC(C)CCl)OC(C)CCl (configuration not stated)	2.59	
O=C1c2ccccc2-c2cccc3cccc1c23	4.81	
CCOP(=S)(Oc1ccc([N+](=O)[O-])cc1)c1ccccc1 (configuration not stated)	4.78	
O=C1c2ccccc2C(=O)c2c1ccc1ccccc21	4.4	
